Biological target: T1, MsBP (modified sugar-binding protein, MITS9220_00117), zinc-bound Zn-MsBP
T1 construct: Tat signal peptide removed, N-terminal hexahistidine tag with thrombin cleavage site (pET15-b)
Assay: ITC of purified MsBP pre-incubated with Zn2+ ([…]x molar excess); supported by DSF (TM […] °C with Zn and FBP)
Design: species or system Synechococcus sp. MIT S9220

O=P(O)(O)OC[C@H]1OC(O)(COP(=O)(O)O)[C@@H](O)[C@@H]1O (stereo partly shown) [FBP, fructose-1,6-bisphosphate]
Kd: 5.8 µM

Source: article PMC8938411, “Novel functional insights into a modified sugar-binding protein from Synechococcus MITS9220” (Scientific Reports, 2022)
